Measured values published in patent US11090305B2, “Methods and compositions to reduce oxidative stress” (University of Massachusetts, priority 2009, dated 2021).

Experiments:
db/db MSC = assay: Response of db/db MSC to adipogenic medium (Oil Red O staining); format: cell-based, mouse
Protocol: Adipocytes were identified by Oil Red O staining. m±sd, n=5, *p<0.05.
Adipocytes were identified by Oil Red O staining. m±sd, n=4, *p<0.05 vs control. […] Endothelial cells were identified by CD31 staining. m±sd, n=4, *p<0.05 vs control, #p<0.05 vs 5 nM.

NKT and γδT cells = assay: NKT and γδT cell populations (flow cytometry, immunostaining); format: in vivo, mouse; settings: hypercholesterolemic mice, 4 weeks
From the text: All mice were purchased from Jackson Laboratories (Bar Harbor, Me.) and were maintained in the mouse barrier facility. Care of mice was in accordance with NIH guidelines and the Institutional Animal Care and Use Committee of the University of Massachusetts Medical School approved all protocols. Mice were kept on a 12 hr day/night schedule and were allowed free access to chow and water. ApoE^−/− and WT mice were fed standard mouse chow (5.4 g fat/100 g diet, 0% cholesterol). HCD mice were fed a diet with 10 g fat/100 g diet, […] (Research Diets, New Brunswick, N.J.). […] Azoxymethane (AOM) was given by intraperitoneal injection (10 mg/Kg weekly for 3 weeks); 1% dextran sodium sulfate was added to the drinking water for the Pt week after AOM treatment.
(§1) Cells were stained with monoclonal antibodies conjugated to various fluoroprobes. These antibodies included: Notch1, cKit (2B8), Sca-1 (E13-161.7), CD4 (L3T4), CD8 (53-6.72), CD90.1, CD25, CD44, TCRβ, NK1.1, γδTCR, CD45.1, CD45.2. The lineage cocktail consisted of CD4, CD8, B220 (RA3-6B2), TER-119, Mac-1 (MI/70), and Gr-1 (RB6-8C5). All antibodies were purchased from BD Bioscience (San Diego, Calif.). FACS analysis was carried out on a FACS Diva.
The colon and rectum was removed en bloc from each mouse and the number of polyps was identified using a dissecting microscope. Each polyp was frozen in OCT at −80° C. and cryosections (10 μM) cut. H&E staining was used to identify the histological grade of each polyp, assigned by a pathologist blinded to study condition. Standard immunostaining protocol was used to identify γδT cells (monoclonal antibody to γδTCR, DAPI counterstaining) and NKT cells (monoclonal antibodies to TCR and NK1.1, DAPI counterstaining). Sections were viewed with a Zeiss immunofluorescent microscope and Axiovert software.

Notch1 = Notch1 expression in HSCs, early T progenitor cells and thymocytes (Example 6); format: in vivo, mouse; settings: hypercholesterolemic mice, 4 weeks
Protocol: as §1
The Notch signaling pathways are expressed extensively in the hematopoietic system. Notch signaling dominates the regulation of proliferation, self-renewal, and lineage commitment of HSCs in the bone marrow as well as their downstream differentiation and maturation in the thymus (23-28). Moreover, Notch1 appears to participate in the differentiation of the unique T cell subsets, NKT cells and γδT cells (29-32). In this context, the mechanistic basis between HSC oxidant stress and aberrant lineage specification toward NKT and γδT cells in hypercholesterolemic mice was evaluated by determining Notch expression in HSC, bone marrow T cell progenitors, and immature thymocytes. […] Notch1 expression was evaluated in HSCs, early T progenitor cells, and thymocytes differs between ApoE^−/− and WT mice. […] Notch1 expression also was evaluated in HSCs, early T progenitor cells, and thymocytes differs between HCD and WT mice. […]

Fyn = Fyn expression in total thymocyte population; format: in vivo, mouse; settings: ApoE^−/− and HCD mice
From the text: Fyn, a member of the Src family of tyrosine kinases, is a critical participant in NKT cell development (33,34). […] FIGS. 55A-55C show Thymocyte Fyn expression is reduced in hypercholesterolemic mice. […] Representative western blots from 3 mice in each group, all run on the same gel, are shown. […] However, in DN3 and DN4 thymocytes, Fyn mRNA expression was less in ApoE^−/− than in WT mice. m±sd, *p<0.05 vs. WT; n=4 mice per group. (C) siRNA for Notch1 reduced mRNA expression of Fyn in WT thymocytes in vitro, with a threshold observed at 1.0 μg siRNA. m±sd, n=3 mice; *p<0.05 vs. random RNA. A representative western blot showing a single experiment run on the same gel is shown. […] These findings indicate that Notch1 and Fyn expression are linked, and that the reduced NKT expression in hypercholesterolemic mice is due, in part, to the Notch1 dependent reduction of Fyn expression in thymocytes. Finally, Fyn expression was determined in the total thymocyte population from WT recipient mice transplanted with ApoE^−/−- or WT-derived HSCs. Thymocyte Fyn expression in WT recipients transplanted with ApoE^−/−-derived HSCs was less than half that observed in WT recipients transplanted with WT-derived HSCs (FIG. 56). […] Fyn expression in thymocytes from the Apoe→WT group was less than in the WT→WT group. m±sd; n=4; *p<0.05 vs. WT→WT group. […]

For `CC(=O)N[C@@H](CS)C(=O)O` [NAC, N-acetylcysteine], the differentiation towards adipocytes (db/db MSC) was “reduced adipogenesis”, the “colonic resident populations of NKT and γδT cells” value (NKT and γδT cells; healthy colon) was “restored the colonic resident populations of NKT and γδT cells to WT levels” and the “numbers of NKT and γδT cells in AOM-induced polyps” value (NKT and γδT cells) was “significantly increased the numbers of NKT and γδT cells in all grades of AOM-induced polyps”. For the same molecule, the “percentages of γδT cells and NKT cells in the thymus and peripheral blood” value (NKT and γδT cells) was “reversed by in vivo treatment with NAC for 4 weeks”, the “differences in Notch1 expression in HSCs, T progenitor cells and thymocytes” value (Notch1) was “significantly reversed by in vivo treatment with NAC for 4 weeks” and the “expression of Fyn in the total thymocyte population” value (Fyn) was “restored in vivo by treatment with NAC”.
